From patent publication US6514911B1, “Substituted oxadiazines useful as pesticides” (Uniroyal Chemical Company, Inc., priority 2002, dated 2003)

Experiments:
[1] = test system: velvetleaf (Abutilon theophrasti Medik.) (VL); assay: Preemergence herbicide test, soil drench, velvetleaf; type: in vivo; conditions: 10 lbs/A (11.2 kg/ha) soil drench, two weeks after treatment, vs untreated checks; for pest or weed control at 11208.5 g/ha: Abutilon theophrasti, 336 h, read-out: Percent Weed Control VL
Description: (§1) To illustrate the effectiveness of the previously described substituted oxadiazines of this invention as preemergence herbicides, 300 mg of the chemical was dissolved in a composition comprising 10 mL acetone to which 30 mg of tile emulsifying agent, ethoxylated sorbitan monolaurate, was added. The solution was diluted to 100 mL with distilled water. Ten milliliters of this 3000 ppm solution was diluted to 250 ppm with distilled water. The chemical was applied at the rate of 10 pounds/acre (11.2 kg/ha) by drenchings 46 mL of the 250 ppm solution on the surface of soil in 4½ inch (11.25 cm) plastic pots wherein seeds of the following weeds had been planted: velvetleaf (Abutilon theophrasti Medik.) (VL), The percent control of the weeds compared to untreated checks was determined two weeks after treatment. TABLE 1 summarizes the results achieved with compounds formulated as indicated above, and the data clearly indicate the good to excellent herbicidal efficacy of compositions of this invention.

[2] = test system: switchgrass (Panicum virgahim L.) (SG); assay: Preemergence herbicide test, soil drench, switchgrass; type: in vivo; conditions: 10 lbs/A (11.2 kg/ha) soil drench, two weeks after treatment, vs untreated checks; for pest or weed control at 11208.5 g/ha: Panicum, 336 h, read-out: Percent Weed Control SG
Description: as §1, with “planted:” for “planted: velvetleaf (Abutilon theophrasti Medik.) (VL), The percent control of the weeds compared to untreated checks was determined two weeks after treatment. TABLE 1 summarizes the results achieved with compounds formulated as indicated above, and the data clearly indicate the good to excellent herbicidal efficacy of compositions of this invention.”
switchgrass (Panicum virgahim L.) (SG),
(§2) The percent control of the weeds compared to untreated checks was determined two weeks after treatment. TABLE 1 summarizes the results achieved with compounds formulated as indicated above, and the data clearly indicate the good to excellent herbicidal efficacy of compositions of this invention.

[3] = test system: jimsonweed (Datura stramonium L.) (JW); assay: Preemergence herbicide test, soil drench, jimsonweed; type: in vivo; conditions: 10 lbs/A (11.2 kg/ha) soil drench, two weeks after treatment, vs untreated checks
Description: as §1, with “jimsonweed (Datura stramonium L.) (JW),” for “velvetleaf (Abutilon theophrasti Medik.) (VL),”

[4] = test system: green foxtail (Setaria virdis (L.) Beauv.) (GF); assay: Preemergence herbicide test, soil drench, green foxtail; type: in vivo; conditions: 10 lbs/A (11.2 kg/ha) soil drench, two weeks after treatment, vs untreated checks; for pest or weed control at 11208.5 g/ha: Setaria, 336 h, read-out: Percent Weed Control GF
Description: as §1, with “41⁄2” for “4½”, “green foxtail (Setaria […].) Beauv.) (GF).” for “velvetleaf (Abutilon theophrasti Medik.) (VL),”

[5] = test system: barnyardgrass (Echinochloa crus-galli (L.) Beauv.) (BG); assay: Preemergence herbicide test, soil drench, barnyardgrass; type: in vivo; conditions: 10 lbs/A (11.2 kg/ha) soil drench, two weeks after treatment, vs untreated checks; for pest or weed control at 11208.5 g/ha: Echinochloa crus-galli, 336 h, read-out: Percent Weed Control BG
Description: as §1, with “barnyardgrass (Echinochloa crus-galli (L.) Beauv.) (BG), and” for “velvetleaf (Abutilon theophrasti Medik.) (VL),”

[6] = test system: prickly sida (Sida spinosa L.) (PS); assay: Preemergence herbicide test, soil drench, prickly sida; type: in vivo; conditions: Sida spinosa, 336 h, 10 lbs/A (11.2 kg/ha) soil drench, two weeks after treatment, vs untreated checks, read-out: Percent Weed Control PS
Description: To illustrate the effectiveness of the previously described substituted oxadiazines of this invention as preemergence herbicides, 300 mg of the chemical was dissolved in a composition comprising 10 mL acetone to which 30 mg of tile emulsifying agent, ethoxylated sorbitan monolaurate, was added. The solution was diluted to 100 mL with distilled water. Ten milliliters of this 3000 ppm solution was diluted to 250 ppm with distilled water. […]
prickly sida (Sida spinosa L.) (PS),
as §2

[7] = test system: tall morningglory (Ipomoea purpurea (L.) Roth) (TM); assay: Preemergence herbicide test, soil drench, tall morningglory; type: in vivo; conditions: 10 lbs/A (11.2 kg/ha) soil drench, two weeks after treatment, vs untreated checks; for pest or weed control at 11208.5 g/ha: Ipomoea, 336 h, read-out: Percent Weed Control TM
Description: as §1, with “tall morningglory (Ipomoea purpurea (L.) Roth) (TM),” for “velvetleaf (Abutilon theophrasti Medik.) (VL),”

insects = assay: Insecticidal properties (no method given); conditions: statement in words, no test details

Row | Structure (SMILES) | pest or weed control at 11208.5 g/ha [1] | pest or weed control at 11208.5 g/ha [2] | Percent Weed Control JW [3] | pest or weed control at 11208.5 g/ha [4] | pest or weed control at 11208.5 g/ha [5] | pest or weed control at 11208.5 g/ha [6] | pest or weed control at 11208.5 g/ha [7] | Percent Weed Control VL [1] | insecticidal properties (insects) | Percent Weed Control SG [2] | Percent Weed Control GF [4] | Percent Weed Control BG [5] | Percent Weed Control TM [7]
1 | FC(F)(F)C(F)(F)C(F)(F)C1=NC(C(F)(F)F)(C(F)(F)F)N=C(c2ccccc2)O1 [2-(heptafluoropropyl)-6-phenyl-4,4-bis(trifluoromethyl)-4H-1,3,5-oxadiazine, reference compound] | 0% | 0% | 0% | 0% | 0% | 0% | 0% | – | – | – | – | – | –
2 | FC(F)(F)c1cccc(C2=NC(C(F)(F)F)(C(F)(F)F)N=C(C(F)(F)C(F)(F)F)O2)c1 [Compound 14, 2-(pentafluoroethyl)-4,4-bis(trifluoromethyl)-6-{(3-trifluoromethyl)phenyl}-4H-1,3,5-oxadiazine] | – | – | 100% | – | – | – | – | 100% | found to have insecticidal properties | 100% | 100% | 100% | 100%
3 | FC(F)(F)Oc1ccc(C2=NC(C(F)(F)F)(C(F)(F)F)N=C(C(F)(F)C(F)(F)F)O2)cc1 [Compound 16, 2-(pentafluoroethyl)-6-{(4-trifluoromethoxy)phenyl}-4,4-bis(trifluoromethyl)-4H-1,3,5-oxadiazine] | – | – | 100% | – | – | – | – | 100% | found to have insecticidal properties | 100% | 100% | 100% | 100%
4 | COc1cccc(C2=NC(C(F)(F)F)(C(F)(F)F)N=C(C(F)(F)C(F)(F)F)O2)c1 [Compound 23, 2-(3-methoxyphenyl)-6-(pentafluoroethyl)-4,4-bis(trifluoromethyl)-4H-1,3,5-oxadiazine] | 100% | 50% | 100% | 50% | 0% | – | 100% | – | – | – | – | – | –
5 | FC(F)(F)C(F)(F)C(F)(F)C1=NC(C(F)(F)F)(C(F)(F)F)N=C(c2cccc(Cl)c2)O1 [Compound 26, 2-(3-chlorophenyl)-6-(heptafluoropropyl)-4,4-bis(trifluoromethyl)-4H-1,3,5-oxadiazine] | 100% | 100% | 100% | 100% | 100% | – | 100% | – | found to have insecticidal properties | – | – | – | –
